Results: article PMC9786103, “Potent and Selective Inhibition of CYP1A2 Enzyme by Obtusifolin and Its Chemopreventive Effects” (Pharmaceutics, 2022)
Like-named read-outs stand apart in the source and are kept apart here.

Key:
[1] = read-out: Maximum concentration (Cmax) of obtusifolin in rat blood, cited from earlier work
CYP3A = CYP3A (Homo sapiens, UniProt P08684); assay: Midazolam 1'-hydroxylation in human liver microsomes; type: biochemical; details: pooled human liver microsomes, probe midazolam, HLMs
Description: (§3) The following P450 isoform-specific substrates were used: coumarin (CYP2A6); bupropion (CYP2B6); amodiaquine (CYP2C8); tolbutamide (CYP2C9); omeprazole (CYP2C19); dextromethorphan (CYP2D6); chlorzoxazone (CYP2E1); and midazolam (CYP3A). […] NGS was introduced to start the reaction, which was followed by an additional incubation (15 min). Following reaction termination, aliquots of the supernatants were analyzed with LC-MS/MS.
(§4) Reverse phase column (Kinetex XB-C18, 100 × 2.10 mm; Phenomenex, Torrance, CA, USA) and triple-quadrupole mass spectrometer (LCMS 8060, Shimadzu, Kyoto, Japan) with an ultra high-performance LC system (Nexera X2, Shimadzu) analyze all the metabolites. […] For each metabolite, quantitation was carried out in selected reaction monitoring (SRM) mode using the following precursor-to-product ion transition: m/z 152 > 110 for acetaminophen (CYP1A2), m/z 214 > 186 for resorufin (CYP1A1 and CYP1A2), m/z 163 > 107 for 7-hydroxycoumarin (CYP2A6), m/z 256 > 238 for 6-hydroxybupropion (CYP2B6), m/z 328 > 283 for N-desethylamodiaquine (CYP2C8), m/z 287 > 89 for 5-hydroxytolbutamide (CYP2C9), m/z 362 > 214 for 4-hydroxyomeprazole (CYP2C9), m/z 258 > 157 for dextrorphan (CYP2D6), m/z 184 > 120 for 6-hydroxychlorzoxazone (CYP2E1), m/z 342 > 203 for 1′-hydroxymidazolam (CYP3A), and m/z 295 > 100 for trimipramine (IS) [23, 24].

CYP1A2 [2] = molecular target: T1, CYP1A2 (Homo sapiens, UniProt P05177); assay: Kinetic characterization of inhibition of CYP1A2-mediated POD in human liver microsomes; type: biochemical; set-up: tissue XenoTech XTreme 200; host or cells: pooled human liver microsomes; details: HLMs; for Type of inhibition of CYP1A2-mediated POD: Lineweaver-Burk and Dixon plots
T1 sequence (P05177 1-516): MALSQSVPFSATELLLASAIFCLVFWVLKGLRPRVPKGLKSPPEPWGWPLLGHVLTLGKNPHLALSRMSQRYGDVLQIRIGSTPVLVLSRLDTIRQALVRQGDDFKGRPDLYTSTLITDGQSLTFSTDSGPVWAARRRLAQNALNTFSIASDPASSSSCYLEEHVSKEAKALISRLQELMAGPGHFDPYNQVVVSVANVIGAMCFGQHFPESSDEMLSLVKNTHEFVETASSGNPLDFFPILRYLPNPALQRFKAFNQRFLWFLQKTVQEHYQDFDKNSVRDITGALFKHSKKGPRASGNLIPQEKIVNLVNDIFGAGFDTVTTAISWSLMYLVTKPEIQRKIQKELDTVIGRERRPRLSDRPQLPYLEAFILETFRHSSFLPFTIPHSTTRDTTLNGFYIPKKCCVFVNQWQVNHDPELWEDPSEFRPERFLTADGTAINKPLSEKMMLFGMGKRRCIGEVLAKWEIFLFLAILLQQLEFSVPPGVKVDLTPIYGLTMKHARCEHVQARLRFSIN
Excerpt: (§1) The other conditions were similar to those used in the P450 inhibition study, as described earlier.
(§2) WinNonlin software (Pharsight, Mountain View, CA, USA) was used to calculate IC50 values. Based on Lineweaver–Burk double reciprocal plots, secondary plots of Lineweaver–Burk plots versus obtusifolin concentrations, and visual inspection of Dixon plots, the type of inhibition and apparent kinetic parameters for inhibitory activity (Ki) were estimated.

CYP2C19 = molecular target: T2, CYP2C19 (Homo sapiens, UniProt P33261); assay: Omeprazole 4-hydroxylation in human liver microsomes; type: biochemical; details: HLMs
T2 construct: Mixtures of pooled HLM, P450 substrates, and obtusifolin; tissue XenoTech XTreme 200; host or cells: pooled human liver microsomes
Description: as §3, §4

CYP1A1 and CYP1A2 = assay: CYP1A1- and CYP1A2-mediated POD and EROD with recombinant enzymes (summary); type: biochemical; details: human, summary bound
Description: as §1
The inhibitory effects of obtusifolin on the CYP1A-mediated ethoxyresorufin O-deethylation (EROD) activity of rCYP1A1 and rCYP1A2 enzymes (10 pmol/mL) were investigated. […] The other conditions, except for the incubation time (20 min), were similar to those used in the P450 inhibition study, as described earlier.

CYP2C9 = molecular target: T3, CYP2C9 (Homo sapiens, UniProt P11712); assay: Tolbutamide 4-hydroxylation in human liver microsomes; type: biochemical; details: HLMs
T3 construct: Mixtures of pooled HLM, P450 substrates, and obtusifolin; tissue XenoTech XTreme 200; host or cells: pooled human liver microsomes
Description: as §3, §4

CYP2A6 = molecular target: T4, CYP2A6 (Homo sapiens, UniProt P11509); assay: Coumarin 7-hydroxylation in human liver microsomes; type: biochemical; details: HLMs
T4 construct: Mixtures of pooled HLM, P450 substrates, and obtusifolin; tissue XenoTech XTreme 200; host or cells: pooled human liver microsomes
T4 sequence (P11509 1-494): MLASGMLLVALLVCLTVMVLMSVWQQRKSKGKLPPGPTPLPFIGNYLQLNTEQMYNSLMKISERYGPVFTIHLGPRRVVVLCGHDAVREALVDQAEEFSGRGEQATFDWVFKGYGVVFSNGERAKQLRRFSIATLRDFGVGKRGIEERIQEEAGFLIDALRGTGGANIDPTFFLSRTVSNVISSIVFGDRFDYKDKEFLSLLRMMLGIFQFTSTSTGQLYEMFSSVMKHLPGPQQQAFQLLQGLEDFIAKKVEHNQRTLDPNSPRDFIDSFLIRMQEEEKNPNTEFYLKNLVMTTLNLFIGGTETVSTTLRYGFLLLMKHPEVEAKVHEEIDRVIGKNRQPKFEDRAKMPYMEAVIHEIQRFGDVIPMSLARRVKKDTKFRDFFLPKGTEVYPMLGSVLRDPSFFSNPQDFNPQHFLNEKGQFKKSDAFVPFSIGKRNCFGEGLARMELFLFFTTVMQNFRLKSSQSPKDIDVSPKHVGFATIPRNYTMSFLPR
Description: as §3, §4

[3] = molecular target: T5, recombinant CYP1A2 (rCYP1A2) (Homo sapiens, UniProt P05177); assay: Inhibition of CYP1A2-mediated POD in recombinant CYP1A2; type: biochemical; details: rCYP1A2 10 pmol/mL
T5 construct: purchased SPMED (Busan, Republic of Korea)
T5 sequence (P05177 1-516): T1 sequence (P05177 1-516)
Excerpt: as §1, §2

CYP2D6 = molecular target: T6, CYP2D6 (Homo sapiens, UniProt P10635); assay: Dextromethorphan O-demethylation in human liver microsomes; type: biochemical; details: HLMs
T6 construct: Mixtures of pooled HLM, P450 substrates, and obtusifolin; tissue XenoTech XTreme 200; host or cells: pooled human liver microsomes
Description: as §3, §4

CYP1A2 [4] = molecular target: T1, CYP1A2; assay: Time-dependent inhibition assay (IC50 shift) of CYP1A2-mediated POD in pHLMs; type: biochemical; set-up: tissue XenoTech XTreme 200; host or cells: pooled human liver microsomes
Description: The IC50 shift approach was applied to assess the time-dependent inhibition of CYP1A2 by obtusifolin [18]. For 30 min, obtusifolin was pre-incubated with pHLMs in the presence of NGS. The reaction was started with 100 µM phenacetin and then incubated for 15 min. Following reaction termination and centrifugation, aliquots of the supernatants were subjected to LC-MS/MS analysis.

T3 sequence (P11712 whole entry): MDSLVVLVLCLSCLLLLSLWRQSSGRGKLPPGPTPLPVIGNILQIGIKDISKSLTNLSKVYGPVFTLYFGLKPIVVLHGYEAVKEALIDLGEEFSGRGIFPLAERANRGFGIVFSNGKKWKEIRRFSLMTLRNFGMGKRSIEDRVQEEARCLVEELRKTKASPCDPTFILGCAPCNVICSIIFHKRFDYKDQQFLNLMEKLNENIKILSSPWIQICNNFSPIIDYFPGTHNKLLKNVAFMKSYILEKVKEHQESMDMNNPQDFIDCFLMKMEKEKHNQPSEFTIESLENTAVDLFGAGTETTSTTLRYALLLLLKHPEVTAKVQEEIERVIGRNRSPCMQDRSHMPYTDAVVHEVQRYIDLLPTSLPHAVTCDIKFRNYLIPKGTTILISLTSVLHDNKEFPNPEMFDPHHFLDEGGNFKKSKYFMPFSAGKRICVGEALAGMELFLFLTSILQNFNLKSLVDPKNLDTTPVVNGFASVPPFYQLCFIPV
T2 sequence (P33261 whole entry): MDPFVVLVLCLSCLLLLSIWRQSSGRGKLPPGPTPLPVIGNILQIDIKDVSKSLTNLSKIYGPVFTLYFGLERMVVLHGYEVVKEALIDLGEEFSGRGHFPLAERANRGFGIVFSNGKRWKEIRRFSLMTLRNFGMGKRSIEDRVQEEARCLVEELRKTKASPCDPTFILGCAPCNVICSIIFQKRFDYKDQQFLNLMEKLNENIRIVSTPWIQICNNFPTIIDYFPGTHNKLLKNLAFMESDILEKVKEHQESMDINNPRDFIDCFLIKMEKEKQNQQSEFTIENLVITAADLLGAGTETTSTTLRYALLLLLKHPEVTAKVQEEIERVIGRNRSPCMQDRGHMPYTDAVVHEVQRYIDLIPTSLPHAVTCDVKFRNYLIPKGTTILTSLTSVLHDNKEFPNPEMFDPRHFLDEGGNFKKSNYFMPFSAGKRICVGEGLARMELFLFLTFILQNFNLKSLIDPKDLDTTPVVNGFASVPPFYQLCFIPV
Chain of CYP3A (P08684 2-503): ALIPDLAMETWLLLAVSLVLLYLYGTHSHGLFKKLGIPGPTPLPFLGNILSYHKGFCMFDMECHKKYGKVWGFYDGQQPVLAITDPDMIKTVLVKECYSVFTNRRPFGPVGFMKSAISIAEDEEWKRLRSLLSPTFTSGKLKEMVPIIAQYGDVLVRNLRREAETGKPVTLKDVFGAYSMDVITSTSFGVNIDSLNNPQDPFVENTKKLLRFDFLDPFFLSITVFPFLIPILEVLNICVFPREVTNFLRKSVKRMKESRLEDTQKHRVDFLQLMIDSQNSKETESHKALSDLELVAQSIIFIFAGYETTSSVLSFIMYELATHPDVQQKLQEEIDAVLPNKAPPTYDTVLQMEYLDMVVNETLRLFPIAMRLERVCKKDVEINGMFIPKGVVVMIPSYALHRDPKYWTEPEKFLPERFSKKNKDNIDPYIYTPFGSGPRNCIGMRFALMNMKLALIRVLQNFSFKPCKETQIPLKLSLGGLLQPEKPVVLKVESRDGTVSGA
T6 sequence (P10635 whole entry): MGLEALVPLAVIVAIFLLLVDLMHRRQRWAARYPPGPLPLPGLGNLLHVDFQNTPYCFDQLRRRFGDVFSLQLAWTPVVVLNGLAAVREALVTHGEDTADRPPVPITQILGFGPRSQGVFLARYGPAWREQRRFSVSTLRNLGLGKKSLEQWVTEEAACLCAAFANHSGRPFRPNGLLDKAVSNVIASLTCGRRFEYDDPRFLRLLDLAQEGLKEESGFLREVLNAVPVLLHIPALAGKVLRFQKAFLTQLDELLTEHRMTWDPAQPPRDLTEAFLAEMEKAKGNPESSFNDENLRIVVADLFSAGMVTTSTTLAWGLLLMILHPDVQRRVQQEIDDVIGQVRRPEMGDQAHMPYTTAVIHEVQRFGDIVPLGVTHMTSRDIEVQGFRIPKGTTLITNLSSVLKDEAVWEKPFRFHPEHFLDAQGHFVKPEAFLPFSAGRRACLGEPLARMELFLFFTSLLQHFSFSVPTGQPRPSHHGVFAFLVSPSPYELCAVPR

IC50 at 15 min (CYP3A): > 50000 nM
Ki (CYP1A2 [2]; phenacetin 20, 50, 100 µM, read-out: Ki, CYP1A2-mediated phenacetin O-deethylation): 110 ± 20 nM
Type of inhibition of CYP1A2-mediated POD (CYP1A2 [2]): competitive
Type of inhibition of CYP1A2-mediated POD (CYP1A2 [2]; listed as obtusifolin): competitive inhibition
IC50 (CYP2C19): > 50000 nM
IC50 (CYP1A1 and CYP1A2): < 570 nM
IC50 (CYP2C9): 28600 nM
IC50 (CYP2A6): > 50000 nM
IC50 ([3]; phenacetin, read-out: IC50, CYP1A2-mediated phenacetin O-deethylation): 370 ± 110 nM
Ki ([3]; read-out: Ki, CYP1A2-mediated phenacetin O-deethylation): 210 ± 53 nM
IC50 (CYP2D6): > 50000 nM
IC50 (CYP1A2 [4]; 30 min preincubation with pHLMs and NGS, phenacetin 100 µM): 130 nM
Time dependence of CYP1A2 inhibition (CYP1A2 [4]; IC50 shift approach): time-independent inhibition
IC50 shift at 15 min (CYP1A2 [4]; human, pooled human liver microsomes, probe phenacetin (100 µM), 30 min preincubation with NGS vs without, pHLMs): 1.46
SMILES: COc1c(O)c(C)cc2c1C(=O)c1c(O)cccc1C2=O [Obtusifolin, obtusifolin]
Cmax ([1]; single oral Semen Cassiae extracts 1.25 g/kg (5.01 mg/g obtusifolin)): 860 nM
Cmax ([1]; single oral obtusifolin 1.3 mg/kg): 540 nM
